From the NIST ThermoML archive (doi:10.1016/j.jct.2017.05.001)
Numbers after ± are expanded uncertainties.

Experiment: wn = mass fraction of the nth substance listed
Details: Liquid; for mass density: Vibrating tube method

OCCNCCO [diethanolamine] + O
mass density [kg/m3]
Details | w1 = 0.0993 | w1 = 0.2 | w1 = 0.3002 | w1 = 0.3997
333.15 K, 130000 kPa | 1041.7 ± 0.7 | 1050.9 ± 0.8 | 1060.6 ± 0.8 | 1070.8 ± 0.8
333.15 K, 140000 kPa | 1045 ± 0.8 | 1054.1 ± 0.8 | 1063.7 ± 0.8 | 1074 ± 0.8
353.15 K, 100 kPa | 981.9 ± 0.7 | 992.4 ± 0.7 | 1003 ± 0.7 | 1013.9 ± 0.7
353.15 K, 500 kPa | 982 ± 0.7 | 992.5 ± 0.7 | 1003.1 ± 0.7 | 1014 ± 0.7
353.15 K, 1000 kPa | 982.2 ± 0.7 | 992.7 ± 0.7 | 1003.4 ± 0.7 | 1014.2 ± 0.7
353.15 K, 2000 kPa | 982.6 ± 0.7 | 993.1 ± 0.7 | 1003.7 ± 0.7 | 1014.5 ± 0.7
353.15 K, 5000 kPa | 983.9 ± 0.7 | 994.4 ± 0.7 | 1005 ± 0.7 | 1015.8 ± 0.7
353.15 K, 10000 kPa | 986.1 ± 0.7 | 996.5 ± 0.7 | 1007.1 ± 0.7 | 1017.8 ± 0.7
353.15 K, 15000 kPa | 988.2 ± 0.7 | 998.6 ± 0.7 | 1009.1 ± 0.7 | 1019.8 ± 0.7
353.15 K, 20000 kPa | 990.3 ± 0.7 | 1000.6 ± 0.7 | 1011.1 ± 0.7 | 1021.8 ± 0.7
353.15 K, 30000 kPa | 994.4 ± 0.7 | 1004.7 ± 0.7 | 1015.1 ± 0.7 | 1025.7 ± 0.7
353.15 K, 40000 kPa | 998.5 ± 0.7 | 1008.5 ± 0.7 | 1018.9 ± 0.7 | 1029.4 ± 0.7
353.15 K, 50000 kPa | 1002.4 ± 0.7 | 1012.4 ± 0.7 | 1022.6 ± 0.7 | 1033 ± 0.7
353.15 K, 60000 kPa | 1006.2 ± 0.7 | 1016.3 ± 0.7 | 1026.4 ± 0.7 | 1036.7 ± 0.7
353.15 K, 70000 kPa | 1010 ± 0.7 | 1019.8 ± 0.7 | 1029.9 ± 0.7 | 1040.2 ± 0.7
353.15 K, 80000 kPa | 1013.7 ± 0.7 | 1023.4 ± 0.7 | 1033.4 ± 0.7 | 1043.6 ± 0.7
353.15 K, 90000 kPa | 1017.3 ± 0.7 | 1026.9 ± 0.7 | 1036.8 ± 0.7 | 1047 ± 0.7
353.15 K, 100000 kPa | 1020.9 ± 0.7 | 1030.4 ± 0.7 | 1040.1 ± 0.7 | 1050.4 ± 0.8
353.15 K, 110000 kPa | 1024.4 ± 0.7 | 1033.8 ± 0.7 | 1043.5 ± 0.7 | 1053.6 ± 0.8
353.15 K, 120000 kPa | 1027.8 ± 0.7 | 1037.1 ± 0.7 | 1046.8 ± 0.8 | 1056.8 ± 0.8
353.15 K, 130000 kPa | 1031.1 ± 0.7 | 1040.5 ± 0.7 | 1050 ± 0.8 | 1060 ± 0.8
353.15 K, 140000 kPa | 1034.4 ± 0.7 | 1043.6 ± 0.8 | 1053.1 ± 0.8 | 1063 ± 0.8
373.15 K, 100 kPa | 968.1 ± 0.7 | 978.3 ± 0.7 | 988.7 ± 0.7 | 999.2 ± 0.7
373.15 K, 500 kPa | 968.3 ± 0.7 | 978.6 ± 0.7 | 988.9 ± 0.7 | 999.4 ± 0.7
373.15 K, 1000 kPa | 968.6 ± 0.7 | 978.8 ± 0.7 | 989.2 ± 0.7 | 999.6 ± 0.7
373.15 K, 2000 kPa | 969.1 ± 0.7 | 979.3 ± 0.7 | 989.6 ± 0.7 | 1000.1 ± 0.7
373.15 K, 5000 kPa | 970.4 ± 0.7 | 980.6 ± 0.7 | 990.9 ± 0.7 | 1001.4 ± 0.7
373.15 K, 10000 kPa | 972.7 ± 0.7 | 982.8 ± 0.7 | 993.2 ± 0.7 | 1003.6 ± 0.7
373.15 K, 15000 kPa | 974.9 ± 0.7 | 985 ± 0.7 | 995.3 ± 0.7 | 1005.7 ± 0.7
373.15 K, 20000 kPa | 977.1 ± 0.7 | 987.2 ± 0.7 | 997.4 ± 0.7 | 1007.8 ± 0.7

viscosity [mPa·s]
Details | w1 = 0.0993 | w1 = 0.1 | w1 = 0.2 | w1 = 0.3 | w1 = 0.3002 | w1 = 0.3997 | w1 = 0.4
353.15 K, 100 kPa, Concentric cylinders viscometry | – | 0.474 ± 0.011 | 0.627 ± 0.014 | 0.866 ± 0.018 | – | – | 1.244 ± 0.026
353.15 K, 100 kPa, Falling or rolling sphere viscometry | 0.4595 ± 0.015 | – | 0.6088 ± 0.02 | – | 0.8528 ± 0.028 | 1.226 ± 0.04 | –
353.15 K, 5000 kPa, Falling or rolling sphere viscometry | 0.4583 ± 0.015 | – | 0.6083 ± 0.02 | – | 0.8459 ± 0.028 | 1.231 ± 0.041 | –
353.15 K, 10000 kPa, Falling or rolling sphere viscometry | 0.4614 ± 0.015 | – | 0.6136 ± 0.02 | – | 0.8544 ± 0.028 | 1.239 ± 0.041 | –
353.15 K, 15000 kPa, Falling or rolling sphere viscometry | 0.4631 ± 0.015 | – | 0.6167 ± 0.02 | – | 0.8578 ± 0.028 | 1.247 ± 0.041 | –
353.15 K, 20000 kPa, Falling or rolling sphere viscometry | 0.464 ± 0.015 | – | 0.6198 ± 0.02 | – | 0.8642 ± 0.028 | 1.255 ± 0.041 | –
353.15 K, 25000 kPa, Falling or rolling sphere viscometry | 0.4671 ± 0.015 | – | 0.6239 ± 0.021 | – | 0.8704 ± 0.029 | 1.264 ± 0.042 | –
353.15 K, 30000 kPa, Falling or rolling sphere viscometry | 0.4692 ± 0.015 | – | 0.6271 ± 0.021 | – | 0.8768 ± 0.029 | 1.275 ± 0.042 | –
353.15 K, 40000 kPa, Falling or rolling sphere viscometry | 0.4733 ± 0.015 | – | 0.6333 ± 0.021 | – | 0.8887 ± 0.029 | 1.292 ± 0.043 | –
353.15 K, 60000 kPa, Falling or rolling sphere viscometry | 0.4815 ± 0.016 | – | 0.646 ± 0.021 | – | 0.9096 ± 0.03 | 1.335 ± 0.044 | –
353.15 K, 80000 kPa, Falling or rolling sphere viscometry | 0.4886 ± 0.016 | – | 0.6588 ± 0.022 | – | 0.9309 ± 0.031 | 1.371 ± 0.045 | –
353.15 K, 100000 kPa, Falling or rolling sphere viscometry | 0.4971 ± 0.016 | – | 0.6731 ± 0.022 | – | 0.9514 ± 0.031 | 1.409 ± 0.046 | –
373.15 K, 5000 kPa, Falling or rolling sphere viscometry | 0.3586 ± 0.012 | – | 0.4622 ± 0.015 | – | 0.6145 ± 0.02 | 0.8545 ± 0.028 | –
373.15 K, 10000 kPa, Falling or rolling sphere viscometry | 0.3611 ± 0.012 | – | 0.4646 ± 0.015 | – | 0.6194 ± 0.02 | 0.863 ± 0.028 | –
373.15 K, 15000 kPa, Falling or rolling sphere viscometry | 0.3635 ± 0.012 | – | 0.467 ± 0.015 | – | 0.6247 ± 0.021 | 0.8727 ± 0.029 | –
373.15 K, 20000 kPa, Falling or rolling sphere viscometry | 0.3652 ± 0.012 | – | 0.4698 ± 0.015 | – | 0.6304 ± 0.021 | 0.8808 ± 0.029 | –
373.15 K, 25000 kPa, Falling or rolling sphere viscometry | 0.3672 ± 0.012 | – | 0.4729 ± 0.015 | – | 0.6353 ± 0.021 | 0.889 ± 0.029 | –
